Values of other authors as cited in article PMC4895178 (Scientific Reports, 2016).

Conditions: in plasma
From the text: The pioneering work of Vale et al.[8] established that residues 7 to 10 form the ph ...

SMILES: C[C@H](N)C(=O)NCC(=O)N[C@H]1CSSC[C@@H](C(=O)O)NC(=O)[C@H](CO)NC(=O)[C@H]([C@@H](C)O)NC(=O)[C@H](Cc2ccccc2)NC(=O)[C@H]([C@@H](C)O)NC(=O)[C@H](CCCCN)NC(=O)[C@H](Cc2c[nH]c3ccccc23)NC(=O)[C@H](Cc2ccccc2)NC(=O)[C@H](Cc2ccccc2)NC(=O)[C@H](CC(N)=O)NC(=O)[C@H](CCCCN)NC1=O [Somatostatin (SRIF), Somatostatin]
- half-life: 2 to 3 min
